Like-named read-outs stand apart in the source and are kept apart here.
What was measured:
Assay type in all cases: cell-based
[1] = system: tumor cells; experiment: MTS proliferation assay (72 h read-out)
Method: B) MTS Proliferation Assay
The assay is performed in 96 well tissue culture plates. The cells (range: 1.5*10^3-10^4) are seeded out in 80 μl complete medium 24 h prior to compound treatment. The test compounds are added in 20 μl complete medium containing max 5% DMSO. The final compound concentrations in the assays are in the range of 0.001 μM-10 μM. The assay plates are incubated for 72 h at culture conditions. The MTS reagent is prepared according to the manufacturer's protocol (Promega G1111). 20 μl MTS reagent are added to each well; the assay plates are quickly spun and incubated for another 3 h at culture conditions. Subsequently, the plates are shortly shaked and absorption measured with a microplate-reader at 492 nm. The scores A, B, C and D are explained at the end of the Table.

[2] = system: tumor cells; experiment: Mitochondrial membrane potential, JC-1 (read-out 48 h); conditions: JC-1, 48 h
Method: D) Mitochondrial Membrane Potential
This assay is performed in 96 well tissue culture plates. Appropriate number of cells (adherent cells: 3-5*10^3, suspension cells: 8-10*10^3) are being seeded out in 80 μl complete medium. Adherent cells are incubated for 24 h for proper spreading out before addition of test compounds while suspension cells are immediately treated with test compounds after seeding out. The test compounds are added in 20 μl complete medium containing max 5% DMSO. […] After 24 h or 48 h incubation at culture conditions, 10 μl medium containing JC-1 (Molecular Probes, T-3168) at 2-5 μg/ml are added to each well. The assay plates are then further incubated for 30 minutes and subsequently analyzed with a standard inverted fluorescence microscope by using the FITC and TRITC filters.
The readout allows the determination of the fraction of cells which show a dissipation of the mitochondrial membrane potential strongly indicating an apoptotic cell death as a function of the treatment. The scores A, B, C and D are explained at the end of the Table.

[3] = Hoechst 33342 nuclear staining (48 h read-out)
Method: (§1) A) Hoechst 33342 Nuclear Staining
(§2) This assay is performed in 96 well tissue culture plates. Appropriate number of cells (adherent cells: 3-5*10^3, suspension cells: 8-10*10^3) are being seeded out in 80 μl complete medium. Adherent cells are incubated for 24 h for proper spreading out before addition of test compounds while suspension cells are immediately treated with test compounds after seeding out. The test compounds are added in 20 μl complete medium containing max 5% DMSO. The final compound concentrations in the assays are in the range of 0.001 μM-10 μM. After 24 h or 48 h incubation at culture conditions, 10 μl medium containing Hoechst 33342 dye (Sigma B-2261) at 2-5 μg/ml are added to each well. The assay plates are then further incubated for 30 minutes and subsequently analyzed with a standard inverted fluorescence microscope.
(§3) The readout allows the determination of the fraction of apoptotic nuclei as well as other morphological criteria specific for apoptosis as a function of the treatment. The scores A, B, C and D are explained at the end of the Table.

[4] = system: tumor cells; experiment: Hoechst 33342 nuclear staining (48 h read-out)
Method: as §1, §2, §3

[5] = Homo sapiens, HT-1080, HT1080 cells, read-out: MTS proliferation assay IC50, HT1080
[6] = Homo sapiens, HeLa cells, read-out: MTS proliferation assay IC50, HeLa
[7] = Homo sapiens, Jurkat cells, read-out: MTS proliferation assay IC50, Jurkat
[8] = Jily cells, read-out: MTS proliferation assay IC50, Jily
[9] = Homo sapiens, HeLa cells, read-out: Mitochondrial membrane potential (read-out 48 h) HeLa
[10] = Homo sapiens, Jurkat cells, read-out: Mitochondrial membrane potential (read-out 48 h) Jurkat
[11] = Homo sapiens, MCF7 cells, read-out: Mitochondrial membrane potential (read-out 48 h) MCF7
[12] = Jily cells, read-out: Mitochondrial membrane potential (read-out 48 h) Jily
[13] = Homo sapiens, MRC5 cells, read-out: Hoechst 33342 nuclear staining EC50, MRC5
[14] = Homo sapiens, HeLa cells, read-out: Hoechst 33342 nuclear staining EC50, HeLa
[15] = Homo sapiens, Jurkat cells, read-out: Hoechst 33342 nuclear staining EC50, Jurkat
[16] = HT1080 cells, read-out: MTS proliferation assay IC50, HT1080
[17] = HeLa cells, read-out: MTS proliferation assay IC50, HeLa
[18] = Jurkat cells, read-out: MTS proliferation assay IC50, Jurkat
[19] = HeLa cells, read-out: Mitochondrial membrane potential (read-out 48 h) HeLa
[20] = Jurkat cells, read-out: Mitochondrial membrane potential (read-out 48 h) Jurkat
[21] = MCF7 cells, read-out: Mitochondrial membrane potential (read-out 48 h) MCF7
[22] = MRC5 cells, read-out: Hoechst 33342 nuclear staining EC50, MRC5
[23] = HeLa cells, read-out: Hoechst 33342 nuclear staining EC50, HeLa
[24] = Jurkat cells, read-out: Hoechst 33342 nuclear staining EC50, Jurkat

| Structure (SMILES) | IC50 [1, 8] | EC50 [2, 12] | IC50 [1, 16] | IC50 [1, 17] | IC50 [1, 18] | EC50 [2, 19] | EC50 [2, 20] | EC50 [2, 21] | EC50 [3, 22] | EC50 [4, 23] | EC50 [4, 24] | further results |
| --- | --- | --- | --- | --- | --- | --- | --- | --- | --- | --- | --- | --- |
| CCOc1ccc(F)cc1C(=O)c1sc2nc(C)c(C)cc2c1N [Example 118, 5,6-Dimethyl-3-amino-2-(2′-ethoxy-5′-fluorobenzoyl)-thieno[2,3-b]pyridine] | 10 to 100 nM | 10 to 100 nM |  |  |  |  |  |  |  |  |  | IC50 [1, 5]: 10 to 100 nM; IC50 [1, 6]: 10 to 100 nM; IC50 [1, 7]: 10 to 100 nM; EC50 [2, 9]: 100 to 1000 nM; EC50 [2, 10]: 10 to 100 nM; EC50 [2, 11]: > 1000 nM; EC50 [3, 13]: 10 to 100 nM; EC50 [4, 14]: 10 to 100 nM; EC50 [4, 15]: 10 to 100 nM |
| Cc1cc2c(N)c(C(=O)c3cc(F)ccc3N3CCOCC3)sc2nc1C [Example 119, 5,6-Dimethyl-3-amino-2-(2′-N-morpholino-5′-fluorobenzoyl)-thieno[2,3-b]pyridin] | 10 to 100 nM | 100 to 1000 nM |  |  |  |  |  |  |  |  |  | IC50 [1, 5]: 10 to 100 nM; IC50 [1, 6]: 100 to 1000 nM; IC50 [1, 7]: 10 to 100 nM; EC50 [2, 9]: > 1000 nM; EC50 [2, 10]: 100 to 1000 nM; EC50 [2, 11]: > 1000 nM; EC50 [3, 13]: 10 to 100 nM; EC50 [4, 14]: 100 to 1000 nM; EC50 [4, 15]: 10 to 100 nM |
| CCOc1ccc(F)cc1C(=O)c1sc2ncc(C#N)cc2c1N [Example 120, 5-Cyano-3-amino-2-(2′-ethoxy-5′-fluorobenzoyl)-thieno[2,3-b]pyridine] | 100 to 1000 nM | 100 to 1000 nM |  |  |  |  |  |  |  |  |  | IC50 [1, 5]: 100 to 1000 nM; IC50 [1, 6]: 100 to 1000 nM; IC50 [1, 7]: 100 to 1000 nM; EC50 [2, 9]: > 1000 nM; EC50 [2, 10]: 100 to 1000 nM; EC50 [2, 11]: > 1000 nM; EC50 [3, 13]: 100 to 1000 nM; EC50 [4, 14]: > 1000 nM; EC50 [4, 15]: 100 to 1000 nM |
| Nc1c(C(=O)c2ccccc2N2CCCCC2)sc2ncccc12 [Example 121] | > 1000 nM | > 1000 nM | > 1000 nM | > 1000 nM | > 1000 nM | > 1000 nM | > 1000 nM | > 1000 nM | > 1000 nM | > 1000 nM | > 1000 nM |  |
| Nc1c(C(=O)c2ccccc2N2CCOCC2)sc2ncccc12 [Example 122] | > 1000 nM | > 1000 nM | > 1000 nM | > 1000 nM | > 1000 nM | > 1000 nM | > 1000 nM | > 1000 nM | > 1000 nM | > 1000 nM | > 1000 nM |  |
| Nc1c(C(=O)c2ccccc2N2CC=CCC2)sc2ncccc12 [Example 123] | > 1000 nM | > 1000 nM | > 1000 nM | > 1000 nM | > 1000 nM | > 1000 nM | > 1000 nM | > 1000 nM | > 1000 nM | > 1000 nM | > 1000 nM |  |
| Nc1c(C(=O)c2cc(F)ccc2N2CCCCC2)sc2ncccc12 [Example 124] | > 1000 nM | > 1000 nM | > 1000 nM | > 1000 nM | > 1000 nM | > 1000 nM | > 1000 nM | > 1000 nM | > 1000 nM | > 1000 nM | > 1000 nM |  |
| Nc1c(C(=O)c2cc(F)ccc2N2CCOCC2)sc2ncccc12 [Example 125] | 100 to 1000 nM | 100 to 1000 nM | > 1000 nM | > 1000 nM | 100 to 1000 nM | > 1000 nM | 100 to 1000 nM | > 1000 nM | > 1000 nM | > 1000 nM | > 1000 nM |  |
| Nc1c(C(=O)c2cc(F)ccc2N2CC=CCC2)sc2ncccc12 [Example 126] | 100 to 1000 nM | 100 to 1000 nM | 100 to 1000 nM | > 1000 nM | 100 to 1000 nM | > 1000 nM | 100 to 1000 nM | > 1000 nM | > 1000 nM | > 1000 nM | > 1000 nM |  |
| CCCOc1ccc(F)cc1C(=O)c1sc2ncc([N+](=O)[O-])cc2c1N [Example 127] | > 1000 nM | > 1000 nM | > 1000 nM | > 1000 nM | > 1000 nM | > 1000 nM | > 1000 nM | > 1000 nM | > 1000 nM | > 1000 nM | > 1000 nM |  |
| CCCOc1ccc(F)cc1C(=O)c1sc2ncc(N)cc2c1N [Example 128] | 100 to 1000 nM | > 1000 nM | 100 to 1000 nM | > 1000 nM | 100 to 1000 nM | > 1000 nM | 100 to 1000 nM | > 1000 nM | 100 to 1000 nM | 100 to 1000 nM | 100 to 1000 nM | EC50 ([3]; PBL, read-out: Hoechst 33342 nuclear staining EC50, PBL): > 1000 nM |
| Nc1c(C(=O)c2cc(F)ccc2N2CCOCC2)sc2ncc([N+](=O)[O-])cc12 [Example 129] | > 1000 nM | > 1000 nM | > 1000 nM | > 1000 nM | > 1000 nM | > 1000 nM | > 1000 nM | > 1000 nM | > 1000 nM | > 1000 nM | > 1000 nM |  |
| Nc1cnc2sc(C(=O)c3cc(F)ccc3N3CCOCC3)c(N)c2c1 [Example 130] | 10 to 100 nM | 100 to 1000 nM | 100 to 1000 nM | 100 to 1000 nM | 10 to 100 nM | 100 to 1000 nM | 100 to 1000 nM | > 1000 nM | 100 to 1000 nM | 100 to 1000 nM | 100 to 1000 nM |  |

From patent publication US8486996B2, “Aroylfuranes and aroylthiophenes” (Basilea Pharmaceutica AG, priority 2006, dated 2013)
